Laboratory results reported in US20090280194A1, “USE OF NITROXYL (HNO) FOR THE TREATMENT OF CANCERS OVEREXPRESSING MAT-8” (priority 2008, published 2009).
Where two headings read alike, the source gives them in different places.

How the values were obtained:
[1] = test system: LNCaP (androgen dependent) prostate tumor cells; assay: Growth inhibition of prostate tumor cells, modified MTT assay; assay type: cell-based
Protocol: (§1) PC3 cells (filled circles) are hormone independent cells, whereas, LNCaP (opend circles) are hormone dependent cells. Y-axis indicates percentage of cell growth as measured by a modified MTT assay. X-axis in the concentration (mM) of Angeli's salt added every 24 hrs for a total of 72 hours.
(§2) A characteristic feature of PC3 (androgen independent) and LNCaP (androgen dependent) prostate tumor cells is the overexpression of an intrinsic plasma membrane Na^+/K^+ pump regulatory protein, MAT-8. As described above, overexpression of MAT-8 is a property shared with breast, pancreatic and lung carcinomas. The growth inhibition of PC3 and LNCaP cells by nitroxyl (HNO) donated by Angeli's salt (AS) was investigated.
(§3) PC3 (2500 cells/well) and LNCaP (4000 cells/well) cells were cultured in 200 μl of incubation media in each well of a 96-well assay plate 24 hours prior to the addition of AS. Following an overnight incubation at 37° C., appropriate AS concentrations were added to each well from a fresh stock solution of 0.5 M AS (Na2N2O3) in 10 mM NaOH (added to stabilize AS) diluted to 30 mM with cell culture medium. AS/HNO was added every 24 hours for a total of 72 hours. Cell viability was assayed using the MTT assay, a colorimetric method performed with minor modification according to the procedure of Mossman (1983) J. Immunol. Methods 65:55-63.

[2] = test system: PC3 (androgen independent) prostate tumor cells; assay: as above; assay type: cell-based
Protocol: as §1, §2, §3

[3] = target: T1, SERCA2a (Canis lupus familiaris, UniProt O46674); assay: EGTA-induced dephosphorylation (E2P hydrolysis) in native cardiac SR vesicles, quenched-flow mixing; assay type: biochemical, dog; conditions: 0.25 mM AS, 24° C.
T1 construct: native cardiac SR vesicles isolated from dog heart; from tissue; host or cells: dog heart, sarcoplasmic reticulum vesicles
T1 sequence (P61012 whole entry partner): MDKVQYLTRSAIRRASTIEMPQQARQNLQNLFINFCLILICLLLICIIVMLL
T1 sequence (O46674 whole entry): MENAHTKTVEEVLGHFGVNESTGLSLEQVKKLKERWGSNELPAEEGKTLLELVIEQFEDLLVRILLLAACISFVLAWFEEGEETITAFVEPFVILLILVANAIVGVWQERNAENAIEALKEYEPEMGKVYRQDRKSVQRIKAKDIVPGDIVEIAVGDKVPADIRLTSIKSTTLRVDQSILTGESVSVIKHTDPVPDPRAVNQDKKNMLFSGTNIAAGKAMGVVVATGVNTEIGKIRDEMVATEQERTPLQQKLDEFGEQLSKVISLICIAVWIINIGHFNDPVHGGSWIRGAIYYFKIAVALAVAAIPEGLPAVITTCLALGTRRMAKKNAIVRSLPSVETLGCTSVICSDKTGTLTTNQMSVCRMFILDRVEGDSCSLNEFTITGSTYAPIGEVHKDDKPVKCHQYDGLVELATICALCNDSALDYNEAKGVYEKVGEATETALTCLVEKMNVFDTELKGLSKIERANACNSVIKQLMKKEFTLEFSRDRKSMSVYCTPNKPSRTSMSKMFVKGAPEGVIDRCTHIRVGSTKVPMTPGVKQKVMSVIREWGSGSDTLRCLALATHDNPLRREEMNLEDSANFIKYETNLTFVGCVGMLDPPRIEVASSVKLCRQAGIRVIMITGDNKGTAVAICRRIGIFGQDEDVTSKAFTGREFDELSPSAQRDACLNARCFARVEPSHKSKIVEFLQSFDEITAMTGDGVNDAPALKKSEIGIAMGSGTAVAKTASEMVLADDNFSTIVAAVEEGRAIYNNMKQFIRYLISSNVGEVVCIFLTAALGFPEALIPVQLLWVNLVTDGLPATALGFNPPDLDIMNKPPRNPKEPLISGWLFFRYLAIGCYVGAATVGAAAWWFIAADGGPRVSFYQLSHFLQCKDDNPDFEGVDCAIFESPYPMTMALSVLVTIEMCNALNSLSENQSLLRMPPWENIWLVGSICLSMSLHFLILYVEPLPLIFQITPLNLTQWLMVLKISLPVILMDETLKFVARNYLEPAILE
Excerpt: Y-axis indicates the level of E2P (nmol/mg), which undergoes hydrolysis in step 6 of FIG. 3. X-axis indicates time following addition of Angeli's salt (sec). The inset figure represents a normalized comparison of E2P hydrolysis in the presence (+AS) or absence (−AS) of Angeli's salt.
Investigations of the mechanism of the cardiac muscle sarcoplasmic reticulum (SR) Ca^2+ pump (SERCA2a) have provided a paradigm for understanding how the interaction of nitroxyl with a regulatory protein (phospholamban) can activate the pump. SERCA2a is a P-type cation pump, i.e., it utilizes ATP as its energy source for uphill Ca^2+ transport and becomes phosphorylated by ATP during the catalytic cycle (FIG. 3). Regulation of its activity by the small intrinsic cardiac SR membrane protein, phospholamban (PLB), involves primarily steps 6 and 8 which are rate-limiting in the overall transport cycle and control Vmax (steps 6 and 8) and the affinity of the cytoplasmic Ca^2+ transport sites, Km (step 8). Mahaney et al. (2005) Biochemistry 44:7713-7724 and Antipenko et al. (1997) Biochemistry 36:12903-12910. […]
SERCA2a was initially phosphorylated at the catalytic site using 10 μM [γ^32P]ATP and then subsequently dephosphorylated by chasing with 5 mM EGTA. […] In the absence of AS/HNO, E2P decay measured at 24° C. by quenched-flow mixing in dog cardiac SR is slow ([…]) and monophasic (FIG. 4).

[4] = target: T2, SERCA2a + PLB (WT) (Canis lupus familiaris, UniProt O46674+P61012); assay: E2P hydrolysis in Sf21 ER microsomes after EGTA chase; assay type: biochemical
T2 construct: made in house; host or cells: Sf21 insect cells (baculovirus), ER microsomes
T2 sequence (P61012 whole entry): as the sequence (P61012 whole entry partner) above
T2 sequence (O46674 whole entry): as the sequence (O46674 whole entry) above
Excerpt: (§4) Nitroxyl (HNO) donated by Angeli's salt (AS) enhances intracellular Ca^2+ cycling in isolated cardiac myocytes by activating Ca^2+ release from ryanodine (RyR2) receptors and Ca^2+ re-uptake by the SR Ca^2+ pump. Tocchetti et al. (2007) Circ. Res. 100:96-104. In cardiac SR vesicles, activation of Ca^2+ uptake by HNO involves a direct interaction with the pump and is accompanied by enhanced dephosphorylation of the cardiac Ca^2+-ATPase isozyme, SERCA2a. To determine whether HNO interacts with SERCA2a or its regulatory protein, phospholamban (PLB) and to characterize the protein site(s) modified by HNO, activation of SERCA2a dephosphorylation by nitroxyl using SERCA2a and PLB (WT and mutant) expressed in Sf21 cell ER microsomes (baculovirus system) was investigated. Brief exposure of SERCA2a+WT PLB to 0.25 mM AS produced a 10-fold stimulation of dephosphorylation (0.5 s^−1→5 s^−1) following an EGTA chase (Table 2). […] Exposure to dithiothreitol (2 mM DTT) reversed the activation of dephosphorylation by nitroxyl, similar to its effect on HNO-induced activation of Ca^2+ release from the RyR2 receptor. Tocchetti et al. (2007) Circ. Res. 100:96-104.

[5] = target: T3, SERCA2a + PLB (−C) (Homo sapiens, UniProt P16615+P26678, C36A/C41A/C46A); assay: as above; assay type: biochemical
T3 construct: made in house; host or cells: Sf21 insect cells (baculovirus), ER microsomes
T3 sequence (P16615 1-997 isoform P16615-2, stated change not applied): as the sequence (O46674 whole entry) above, with S376T, K403N, P538S, V544I, N576H, S661N, S713A, D877E, L963V counted along it
T3 sequence (P26678 whole entry C36A/C41A/C46A): as the sequence (P61012 whole entry partner) above, with D2E, N27K, C36A, C41A, C46A counted along it
Excerpt: as §4

[6] = test system: SERCA2a alone; assay: as above; assay type: biochemical; conditions: 0.25 mM AS
Excerpt: as §4

[7] = target: T4, SR Ca^2+ pump (SERCA2a) (Mus musculus, UniProt O55143); conditions: brief exposure to AS (0.25 mM); SR vesicles from mouse heart; cited from earlier work
T4 construct: Using SR vesicles prepared from mouse heart; host or cells: mouse heart SR vesicles
T4 sequence (P61014 whole entry partner): as the sequence (P61012 whole entry partner) above, with D2E counted along it
T4 sequence (O55143 1-998 isoform O55143-2): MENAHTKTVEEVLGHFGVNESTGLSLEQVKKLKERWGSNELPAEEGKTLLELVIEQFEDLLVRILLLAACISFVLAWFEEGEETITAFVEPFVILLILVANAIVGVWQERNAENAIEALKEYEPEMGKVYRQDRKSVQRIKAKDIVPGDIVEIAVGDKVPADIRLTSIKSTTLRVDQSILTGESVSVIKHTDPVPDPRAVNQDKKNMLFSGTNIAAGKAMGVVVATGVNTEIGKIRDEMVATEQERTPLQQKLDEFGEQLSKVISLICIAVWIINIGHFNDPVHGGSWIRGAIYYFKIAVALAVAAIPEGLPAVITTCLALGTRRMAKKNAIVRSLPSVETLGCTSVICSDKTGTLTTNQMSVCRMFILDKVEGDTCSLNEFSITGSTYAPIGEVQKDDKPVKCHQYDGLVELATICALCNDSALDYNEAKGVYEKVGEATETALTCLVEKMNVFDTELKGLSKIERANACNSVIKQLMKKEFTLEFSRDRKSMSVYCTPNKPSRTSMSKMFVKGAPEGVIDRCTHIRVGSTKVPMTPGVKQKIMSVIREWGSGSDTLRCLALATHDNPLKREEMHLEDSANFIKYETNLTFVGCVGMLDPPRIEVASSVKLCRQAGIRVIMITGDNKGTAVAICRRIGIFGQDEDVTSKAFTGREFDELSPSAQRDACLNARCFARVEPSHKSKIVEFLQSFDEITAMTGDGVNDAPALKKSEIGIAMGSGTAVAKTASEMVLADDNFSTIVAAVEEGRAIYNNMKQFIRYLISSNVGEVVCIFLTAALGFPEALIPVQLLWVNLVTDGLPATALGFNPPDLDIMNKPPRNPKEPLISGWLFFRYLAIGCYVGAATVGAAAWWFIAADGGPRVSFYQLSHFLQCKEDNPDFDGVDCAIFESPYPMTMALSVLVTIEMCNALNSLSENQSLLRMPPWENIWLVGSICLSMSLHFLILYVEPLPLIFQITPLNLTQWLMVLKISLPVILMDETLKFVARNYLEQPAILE

[8] = cited from earlier work
[9] = test system: cells; conditions: cited from earlier work
[10] = AS added every 24 h for 72 h, read-out: Experiment 2 (EC50)
[11] = AS added every 24 h for 72 h, read-out: Experiment 3 (EC50)
[12] = mean of 3 independent experiments, read-out: Mean EC50
[13] = range given for both cell lines, read-out: EC50 growth inhibition over a series of three separate experiments

EC50 ([1]; AS added every 24 h for 72 h, read-out: Experiment 1 (EC50)): 3000 µM
EC50 [1, 10]: 900 µM
EC50 [1, 11]: 1200 µM
EC50 [1, 12]: 1700 µM
EC50 ([1]; mean of experiments 2 and 3 only (experiment 1 left out), read-out: Mean EC50): 1050 µM
EC50 [1, 13]: 1000 to 1700 µM
EC50 ([2]; AS added every 24 h for 72 h, 50% growth inhibition, read-out: Experiment 1 (EC50)): 1400 µM
EC50 [2, 10]: 700 µM
EC50 [2, 11]: 1400 µM
EC50 [2, 12]: 1170 µM
EC50 [2, 13]: 1000 to 1700 µM
E2P decay, accelerated initial decay phase ([3]; without AS 11 s^−1): 77 s⁻¹
E2P decay pattern ([3]; without AS monophasic): biphasic decay pattern
A1 (%) amplitude fast phase ([4]; 0.25 mM AS, 0° C.): 11%
A2 (%) amplitude slow phase ([4]; 0.25 mM AS, 0° C.): 89%
k1 ([4]; 0.25 mM AS, 0° C.): 5.00 s⁻¹
k2 ([4]; 0.25 mM AS, 0° C.): 0.154 s⁻¹
dephosphorylation rate ([4]; 0.25 mM AS, EGTA chase, from 0.5 s^−1 without AS): 5 s⁻¹
stimulation of dephosphorylation ([4]; brief exposure to 0.25 mM AS, EGTA chase): 10 fold
A1 (%) amplitude fast phase ([5]; 0.25 mM AS, 0° C.): 100%
k1 ([5]; 0.25 mM AS, 0° C.): 0.18 s⁻¹
stimulation of dephosphorylation by nitroxyl ([5]; mutant PLB, all 3 transmembrane cysteines Cys→Ala): no stimulation
SMILES: [Na+].[Na+].[O-][N+]([O-])=NO [Angeli's salt]
A1 (%) amplitude fast phase ([6]; 0° C.): 23%
A2 (%) amplitude slow phase ([6]; 0° C.): 77%
k1 ([6]; 0° C.): 4.64 s⁻¹
k2 ([6]; 0° C.): 0.174 s⁻¹
stimulation of dephosphorylation ([6]; microsomes expressing SERCA2a alone): No additional stimulation
effect on Ca^2+ uptake [7]: activates Ca^2+uptake
water solubility [8]: highly water soluble
cell permeation [9]: rapidly permeates cells
